Data as given in patent US9307764B2, “Pesticidal diaryl—heterocyclyl derivatives” (BAYER INTELLECTUAL PROPERTY GMBH, priority 2011, dated 2016).

What was measured:
Type in all cases: in vivo
[1] = system: Aulacophora femoralis; test: Biological Test Example 2: Test on Aulacophora femoralis (cucumber leaf immersion); details: 100 ppm effective component concentration, 2nd-instar larvae, seven days later, 25° C.
Experimental: (§1) Unless other methods are mentioned specifically, the sample solution preparation was prepared as follows.
(§2) Solvent: 3 parts by weight of dimethyl formamide
(§3) Emulsifier: 1 part by weight of polyoxyethylene alkyl phenyl ether
(§4) To prepare a suitable concoction including the active compound, 1 part by weight of the active compound was mixed with the above amount of the solvent containing the above amount of the emulsifier, and the resulting mixture was diluted with water to predetermined concentrations.
Leaves of cucumbers were immersed in the water-diluted solution containing the active compound at the predetermined concentration which was prepared above and, after the solution was air-dried, the resultant leaves were put onto sterilized black soil in a plastic cup, into which five of the 2nd-instar larvae of Aulacophora femoralis were then released. The cup was covered with a lid and maintained in a temperature controlled room at 25° C. having humidity of 50 to 60%. Seven days later, the number of dead larvae was counted to calculate the pesticidal ratio. 100% pesticidal ratio means death of all the larvae, while 0% pesticidal ratio means no dead larvae.

[2] = system: Spodoptera litura; test: Biological Test Example 3: Test on larvae of Spodoptera litura (method using artificial feeds); details: 100 ppm effective component concentration, 3rd-instar larvae, after 7 days, 25° C.
Experimental: as §1, §2, §3, §4
Powdery artificial feeds (trade name: SILK MATE, manufactured by Nihon Nosan Kogyo, Japan, 2.3 g) were added to a plastic cup (diameter: 7.5 cm, height: 4 cm) to achieve a certain thickness. Water-diluted liquid (5 mL) of the active compound prepared above having predetermined concentration was evenly poured thereto and allowed to stand until the feeds are solidified. Five of the 3rd-instar larvae of Spodoptera litura were released in each cup, and covered with a lid. The cups were put in a temperature controlled room at 25° C. having humidity of 50 to 60%, and the number of dead larvae after 7 days was determined to calculate the pesticidal ratio. 100% pesticidal ratio means death of all the larvae, while 0% pesticidal ratio means no dead larvae.

[3] = system: Tetranychus urticae; test: Biological Test Example 1: Test on Tetranychus urticae (spray on Egyptian bean leaves); details: 100 ppm effective component concentration, adult mites, seven days later
Experimental: as §1, §2, §3, §4
50 to 100 of adult Tetranychus urticae were inoculated to leaves at 2-leaf stage of Egyptian bean planted in pots of 6 cm in diameter, to which, 1 day later, the above prepared water diluted solution of the active compound at the predetermined concentration was sufficiently sprayed with a spray gun. After the compounds were sprayed, the pots were left in a greenhouse and the acaricidal ratio was calculated seven days later. 100% acaricidal ratio means death of all the mites, while 0% acaricidal ratio means none of the mites were dead.

| Structure (SMILES) | pesticidal ratio [1] [%] | pesticidal ratio [2] [%] | acaricidal ratio [3] [%] |
| --- | --- | --- | --- |
| CCC(=O)NCc1ccc(N2CC(c3cc(Cl)c(Cl)c(Cl)c3)(C(F)(F)F)OS2=O)cc1C(F)(F)F (centres unmarked) [3-17, N-{4-[2-oxide-5-(3,4,5-trichlorophenyl)-5-(trifluoromethyl)-1,2,3-oxathiazolin-3-yl]-2-(trifluoromethyl)benzyl}propane amide] | 100 | 100 |  |
| CCC(=O)NCc1ccc(N2CC(c3cc(Cl)c(Cl)c(Cl)c3)(C(F)(F)F)OS2(=O)=O)cc1C(F)(F)F (centres unmarked) [5-17, N-{4-[2,2-dioxide-5-(3,4,5-trichlorophenyl)-5-(trifluoromethyl)-1,2,3-oxathiazolin-3-yl]-2-(trifluoromethyl)benzyl}propane amide] | 100 | 100 | 100 |
| CCC(=O)NCc1ccc(N2COC(c3cc(Cl)c(Cl)c(Cl)c3)(C(F)(F)F)C2)cc1C(F)(F)F (centres unmarked) [Compound No. 1-17, N-{4-[5-(3,4,5-trichlorophenyl)-5-(trifluoromethyl)-1,3-oxazolidin-3-yl]-2-(trifluoromethyl)benzyl}propane amide] | 100 | 100 | 100 |
